Data taken from PubChem BioAssay AID2060613 (Molecular Pharmacology Branch, DTP, NCI, 2025).

System: 233499-124-R-J3-PDC complex spheroid viability
Assay: Anticancer human tumor 233499-124-R-J3-PDC patient-derived colon adenocarcinoma cell line growth inhibition [CLK]
Conditions: for IC50: curve of first compound; for viability, T/C: stronger effect = lower value
Procedure, shortened: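 Patient-derived tumor cells grown as complex spheroids with HUVEC endothelial cells and mesenchymal stem cells, treated with drug combinations. Concentrations descend in half-log steps from near clinical Cmax, or from 10 microM if Cmax unknown.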

[1] = second compound 0.0316 µM, first compound 0.00949 µM
[2] = second compound 0.0316 µM, first compound 0.03 µM
[3] = second compound 0.0316 µM, first compound 0.0949 µM
[4] = second compound 0.0316 µM, first compound 0.3 µM
[5] = second compound 0.1 µM, first compound 0.00949 µM
[6] = second compound 0.1 µM, first compound 0.03 µM
[7] = second compound 0.1 µM, first compound 0.0949 µM
[8] = second compound 0.1 µM, first compound 0.3 µM
[9] = second compound 0.316 µM, first compound 0.00949 µM
[10] = second compound 0.316 µM, first compound 0.03 µM
[11] = second compound 0.316 µM, first compound 0.0949 µM
[12] = second compound 0.316 µM, first compound 0.3 µM
[13] = second compound 1 µM, first compound 0.00949 µM
[14] = second compound 1 µM, first compound 0.03 µM
[15] = second compound 1 µM, first compound 0.0949 µM
[16] = second compound 1 µM, first compound 0.3 µM
[17] = second compound 3.16 µM, first compound 0.00949 µM
[18] = second compound 3.16 µM, first compound 0.03 µM
[19] = second compound 3.16 µM, first compound 0.0949 µM
[20] = second compound 3.16 µM, first compound 0.3 µM
[21] = second compound 10 µM, first compound 0.00949 µM
[22] = second compound 10 µM, first compound 0.03 µM
[23] = second compound 10 µM, first compound 0.0949 µM
[24] = second compound 10 µM, first compound 0.3 µM
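Also: spheroids exposed to the drug combinations for seven days.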
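For viability, T/C in this document: percent viability relative to DMSO vehicle control wells taken as 100%.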

C=CC(=O)Nc1cc(Nc2nccc(-c3cn(C)c4ccccc34)n2)c(OC)cc1N(C)CCN(C)C + CNC(=O)c1ccc(Nc2nc(OC3CCCC3)c3c(-c4ccc5nc(C)oc5c4)c[nH]c3n2)c(OC)c1
IC50 (second compound 0.0316 µM): > 300 nM
IC50 (second compound 0.1 µM): > 300 nM
IC50 (second compound 0.316 µM): > 300 nM
IC50 (second compound 1 µM): > 300 nM
IC50 (second compound 3.16 µM): > 300 nM
IC50 (second compound 10 µM): > 300 nM
viability, T/C (second compound 0.0316 µM, first compound 0.000949 µM): 70.1%
viability, T/C (second compound 0.0316 µM, first compound 0.003 µM): 97%
viability, T/C [1]: 76.7%
viability, T/C [2]: 91%
viability, T/C [3]: 94.9%
viability, T/C [4]: 71.8%
viability, T/C (second compound 0.1 µM, first compound 0.000949 µM): 69.8%
viability, T/C (second compound 0.1 µM, first compound 0.003 µM): 80.8%
viability, T/C [5]: 77.9%
viability, T/C [6]: 74.8%
viability, T/C [7]: 81.5%
viability, T/C [8]: 77.1%
viability, T/C (second compound 0.316 µM, first compound 0.000949 µM): 70%
viability, T/C (second compound 0.316 µM, first compound 0.003 µM): 86%
viability, T/C [9]: 69.2%
viability, T/C [10]: 68.4%
viability, T/C [11]: 76.6%
viability, T/C [12]: 78.3%
viability, T/C (second compound 1 µM, first compound 0.000949 µM): 78.7%
viability, T/C (second compound 1 µM, first compound 0.003 µM): 76.2%
viability, T/C [13]: 75.3%
viability, T/C [14]: 82.5%
viability, T/C [15]: 69.9%
viability, T/C [16]: 73.3%
viability, T/C (second compound 3.16 µM, first compound 0.000949 µM): 55.5%
viability, T/C (second compound 3.16 µM, first compound 0.003 µM): 71.3%
viability, T/C [17]: 81.4%
viability, T/C [18]: 65.8%
viability, T/C [19]: 79.7%
viability, T/C [20]: 67.7%
viability, T/C (second compound 10 µM, first compound 0.000949 µM): 73.5%
viability, T/C (second compound 10 µM, first compound 0.003 µM): 62.2%
viability, T/C [21]: 76.9%
viability, T/C [22]: 74.8%
viability, T/C [23]: 69.6%
viability, T/C [24]: 61.7%

NC(=O)C(=Cn1cnc(-c2cc(C(F)(F)F)cc(C(F)(F)F)c2)n1)c1cncnc1 + CNC(=O)c1ccc(Nc2nc(OC3CCCC3)c3c(-c4ccc5nc(C)oc5c4)c[nH]c3n2)c(OC)c1
IC50 (second compound 0.0316 µM): 618 nM
IC50 (second compound 0.1 µM): 263 nM
IC50 (second compound 0.316 µM): 197 nM
IC50 (second compound 1 µM): 133 nM
IC50 (second compound 3.16 µM): 157 nM
IC50 (second compound 10 µM): 161 nM
viability, T/C [1]: 85.5%
viability, T/C [2]: 85.5%
viability, T/C [3]: 79.8%
viability, T/C [4]: 78.2%
viability, T/C (second compound 0.0316 µM, first compound 0.949 µM): 33.4%
viability, T/C (second compound 0.0316 µM, first compound 3 µM): 15.5%
viability, T/C [5]: 85.3%
viability, T/C [6]: 80.8%
viability, T/C [7]: 72.8%
viability, T/C [8]: 34.5%
viability, T/C (second compound 0.1 µM, first compound 0.949 µM): 44.1%
viability, T/C (second compound 0.1 µM, first compound 3 µM): 15.7%
viability, T/C [9]: 74.6%
viability, T/C [10]: 90.3%
viability, T/C [11]: 81.5%
viability, T/C [12]: 31.8%
viability, T/C (second compound 0.316 µM, first compound 0.949 µM): 35.3%
viability, T/C (second compound 0.316 µM, first compound 3 µM): 12%
viability, T/C [13]: 75.4%
viability, T/C [14]: 75.1%
viability, T/C [15]: 51.2%
viability, T/C [16]: 39.9%
viability, T/C (second compound 1 µM, first compound 0.949 µM): 11.4%
viability, T/C (second compound 1 µM, first compound 3 µM): 10.6%
viability, T/C [17]: 68.9%
viability, T/C [18]: 65%
viability, T/C [19]: 71.1%
viability, T/C [20]: 26.3%
viability, T/C (second compound 3.16 µM, first compound 0.949 µM): 9.48%
viability, T/C (second compound 3.16 µM, first compound 3 µM): 4.46%
viability, T/C [21]: 73.5%
viability, T/C [22]: 69.8%
viability, T/C [23]: 67%
viability, T/C [24]: 30.5%
viability, T/C (second compound 10 µM, first compound 0.949 µM): 6.86%
viability, T/C (second compound 10 µM, first compound 3 µM): 1.62%

Nc1ccccc1NC(=O)c1ccc(CNC(=O)OCc2cccnc2)cc1 + CNC(=O)c1ccc(Nc2nc(OC3CCCC3)c3c(-c4ccc5nc(C)oc5c4)c[nH]c3n2)c(OC)c1
IC50 (second compound 0.0316 µM): 1830 nM
IC50 (second compound 0.1 µM): 731 nM
IC50 (second compound 0.316 µM): 233 nM
IC50 (second compound 1 µM): 199 nM
IC50 (second compound 3.16 µM): 443 nM
IC50 (second compound 10 µM): 157 nM
viability, T/C (second compound 0.0316 µM, first compound 0.0316 µM): 96.7%
viability, T/C (second compound 0.0316 µM, first compound 0.1 µM): 86%
viability, T/C (second compound 0.0316 µM, first compound 0.316 µM): 91.8%
viability, T/C (second compound 0.0316 µM, first compound 1 µM): 79.7%
viability, T/C (second compound 0.0316 µM, first compound 3.16 µM): 23.1%
viability, T/C (second compound 0.0316 µM, first compound 10 µM): 0.94%
viability, T/C (second compound 0.1 µM, first compound 0.0316 µM): 64.9%
viability, T/C (second compound 0.1 µM, first compound 0.1 µM): 67.4%
viability, T/C (second compound 0.1 µM, first compound 0.316 µM): 63.6%
viability, T/C (second compound 0.1 µM, first compound 1 µM): 44.8%
viability, T/C (second compound 0.1 µM, first compound 3.16 µM): 9.08%
viability, T/C (second compound 0.1 µM, first compound 10 µM): 0.5%
viability, T/C (second compound 0.316 µM, first compound 0.0316 µM): 77%
viability, T/C (second compound 0.316 µM, first compound 0.1 µM): 66.7%
viability, T/C (second compound 0.316 µM, first compound 0.316 µM): 43.6%
viability, T/C (second compound 0.316 µM, first compound 1 µM): 20%
viability, T/C (second compound 0.316 µM, first compound 3.16 µM): 4.82%
viability, T/C (second compound 0.316 µM, first compound 10 µM): 0.23%
viability, T/C (second compound 1 µM, first compound 0.0316 µM): 74.6%
viability, T/C (second compound 1 µM, first compound 0.1 µM): 70.1%
viability, T/C (second compound 1 µM, first compound 0.316 µM): 35.7%
viability, T/C (second compound 1 µM, first compound 1 µM): 15.2%
viability, T/C (second compound 1 µM, first compound 3.16 µM): 2.15%
viability, T/C (second compound 1 µM, first compound 10 µM): 0.09%
viability, T/C (second compound 3.16 µM, first compound 0.0316 µM): 71.1%
viability, T/C (second compound 3.16 µM, first compound 0.1 µM): 65.6%
viability, T/C (second compound 3.16 µM, first compound 0.316 µM): 67.2%
viability, T/C (second compound 3.16 µM, first compound 1 µM): 8.74%
viability, T/C (second compound 3.16 µM, first compound 3.16 µM): 1.22%
viability, T/C (second compound 3.16 µM, first compound 10 µM): 0.1%
viability, T/C (second compound 10 µM, first compound 0.0316 µM): 70.8%
viability, T/C (second compound 10 µM, first compound 0.1 µM): 50.4%
viability, T/C (second compound 10 µM, first compound 0.316 µM): 44.5%
viability, T/C (second compound 10 µM, first compound 1 µM): 20.6%
viability, T/C (second compound 10 µM, first compound 3.16 µM): 1.09%
viability, T/C (second compound 10 µM, first compound 10 µM): 0.15%
